Results taken from patent US20210254056A1, “IDENTIFICATION AND TARGETED MODULATION OF GENE SIGNALING NETWORKS” (CAMP4 THERAPEUTICS CORPORATION, priority 2017, published 2021).
Where two headings read alike, the source gives them in different places.

Assays:
CI-CB-CD34+ cells = test: Biological activity of maximal compound dosages in CI-CB-CD34+ cells; assay type: cell-based, human; conditions: 10 μM dose
Procedure: (§1) The stock for each compound was at 10 mM and were diluted to 100 μM with RMPI+GCMSF (2% DMSO). Cells were collected and resuspended in 8 mL of RPMI+GMCSF at a concentration of 1×10^6 cells/mL. For the TF1 cells, at each well of a 6-well plate were added 1 mL of cells, 300 μL of 100 μM compound dilution, and 1.7 mL of RMPI+GCMSF+1.5% DMSO (1% final DMSO concentration in 3 mL total). One mL of the CI-CB-CD34+ cells, 300 μL of 100 μM compound dilution, and 700 μL of RMPI+GCMSF ([…]) were added to each well of a 6-well plate.
(§2) Compound dilutions were performed as described in Example 1. […] In a 6-well format, there were 1 million cells/well=1 million cells/ml=1000 cells/pl. […].

TF1 cells = test: Biological activity of maximal compound dosages in TF1 cells; assay type: cell-based; conditions: 10 μM dose
Procedure: as §1, §2

[1] = test system: primary human hepatocytes; test: RNA-seq of primary human hepatocytes treated with 39 small molecules (pilot and validation); conditions: for Number (#) of genes having significantly changed expression: pilot RNA-seq study of Example 2, significance: FPKM≥0.5, log 2(fold change)≥1, q-value ≤0.05
[2] = test system: primary human hepatocytes
[3] = RNA-seq, p-value≤0.05, primary human hepatocytes, the modulated genes are listed in the block

COc1ccc(C2=N[C@@H](c3ccc(Cl)cc3)[C@@H](c3ccc(Cl)cc3)N2C(=O)N2CCNC(=O)C2)c(OC(C)C)c1 [Nutlin 3a]
biological activity of CD34+ cells (cell viability) (CI-CB-CD34+ cells): reduced biological activity
response of TF1 cells (biological activity, cell viability) (TF1 cells): did not significantly respond

Cc1ccc(-c2cn3c4c(sc3n2)CCCC4)cc1 [Cyclic-pifithrin alpha, Cyclic Pifithrin-a]
response of TF1 cells (biological activity, cell viability) (TF1 cells): did not significantly respond

CCN1CCCC1CNC(=O)c1cc(S(N)(=O)=O)ccc1OC (stereo not drawn) [MT-277, Sulpiride]
significant modulation of gene expression [1, 3]: significantly (p-value≤0.05) modulate
Number (#) of genes having significantly changed expression [1]: 8
Log2 fold changes in gene expression: CYP2C19 [2]: 0.04
Log2 fold changes in gene expression: CYP3A4 [2]: 0

CC(C)(S)[C@@H](N)C(=O)O [MT-741, Penicillamine(D-)]
Log2 fold changes in gene expression: ACADVL ([1]; RNA-seq validation, duplicates, gene ACADVL): −0.04
Log2 fold changes in gene expression: ACAT2 ([1]; RNA-seq validation, duplicates, gene ACAT2): −0.05
Log2 fold changes in gene expression: ACSL1 ([1]; RNA-seq validation, duplicates, gene ACSL1): 0
Log2 fold changes in gene expression: ACSL5 ([1]; RNA-seq validation, duplicates, gene ACSL5): −0.05
Log2 fold changes in gene expression: AGPAT2 ([1]; RNA-seq validation, duplicates, gene AGPAT2): −0.11
Log2 fold changes in gene expression: AGTR1 ([1]; RNA-seq validation, duplicates, gene AGTR1): −0.04
Log2 fold changes in gene expression: AHSG ([1]; RNA-seq validation, duplicates, gene AHSG): 0.03
Log2 fold changes in gene expression: ALAS1 ([1]; RNA-seq validation, duplicates, gene ALAS1): −0.11
Log2 fold changes in gene expression: AMACR ([1]; RNA-seq validation, duplicates, gene AMACR): −0.24
Log2 fold changes in gene expression: ARG1 ([1]; RNA-seq validation, duplicates, gene ARG1): 0.01
Log2 fold changes in gene expression: CA2 ([1]; RNA-seq validation, duplicates, gene CA2): −0.18
Log2 fold changes in gene expression: CA12 ([1]; RNA-seq validation, duplicates, gene CA12): −0.02
Log2 fold changes in gene expression: CIDEC ([1]; RNA-seq validation, duplicates, gene CIDEC): −0.24
Log2 fold changes in gene expression: COL1A1 ([1]; RNA-seq validation, duplicates, gene COL1A1): 0.14
Log2 fold changes in gene expression: CPS1 ([1]; RNA-seq validation, duplicates, gene CPS1): −0.12
Log2 fold changes in gene expression: CPT1A ([1]; RNA-seq validation, duplicates, gene CPT1A): 0.04
Log2 fold changes in gene expression: CPT2 ([1]; RNA-seq validation, duplicates, gene CPT2): −0.22
Log2 fold changes in gene expression: CYP21A2 ([1]; RNA-seq validation, duplicates, gene CYP21A2): 0.04
Log2 fold changes in gene expression: ECH1 ([1]; RNA-seq validation, duplicates, gene ECH1): −0.14
Log2 fold changes in gene expression: ENO3 ([1]; RNA-seq validation, duplicates, gene ENO3): −0.17
Log2 fold changes in gene expression: ETFDH ([1]; RNA-seq validation, duplicates, gene ETFDH): −0.12
Log2 fold changes in gene expression: FABP1 ([1]; RNA-seq validation, duplicates, gene FABP1): −0.22
Log2 fold changes in gene expression: G6PC ([1]; RNA-seq validation, duplicates, gene G6PC): 0.14
Log2 fold changes in gene expression: GHR ([1]; RNA-seq validation, duplicates, gene GHR): −0.13
Log2 fold changes in gene expression: GLA ([1]; RNA-seq validation, duplicates, gene GLA): −0.06
Log2 fold changes in gene expression: HGD ([1]; RNA-seq validation, duplicates, gene HGD): −0.16
Log2 fold changes in gene expression: HMGCR ([1]; RNA-seq validation, duplicates, gene HMGCR): 0.05
Log2 fold changes in gene expression: HMGCS2 ([1]; RNA-seq validation, duplicates, gene HMGCS2): −0.03
Log2 fold changes in gene expression: HMOX1 ([1]; RNA-seq validation, duplicates, gene HMOX1): 0.05
Log2 fold changes in gene expression: HOGA1 ([1]; RNA-seq validation, duplicates, gene HOGA1): 0
Log2 fold changes in gene expression: HPGD ([1]; RNA-seq validation, duplicates, gene HPGD): −0.06
Log2 fold changes in gene expression: IFT27 ([1]; RNA-seq validation, duplicates, gene IFT27): −0.01
Log2 fold changes in gene expression: LDHA ([1]; RNA-seq validation, duplicates, gene LDHA): 0.08
Log2 fold changes in gene expression: LPIN2 ([1]; RNA-seq validation, duplicates, gene LPIN2): 0.17
Log2 fold changes in gene expression: MOGAT2 ([1]; RNA-seq validation, duplicates, gene MOGAT2): 0.13
Log2 fold changes in gene expression: NCF2 ([1]; RNA-seq validation, duplicates, gene NCF2): −0.19
Log2 fold changes in gene expression: PCSK9 ([1]; RNA-seq validation, duplicates, gene PCSK9): 0.17
Log2 fold changes in gene expression: POR ([1]; RNA-seq validation, duplicates, gene POR): −0.14
Log2 fold changes in gene expression: RMRP ([1]; RNA-seq validation, duplicates, gene RMRP): −1.45
Log2 fold changes in gene expression: SLC2A2 ([1]; RNA-seq validation, duplicates, gene SLC2A2): −0.22
Log2 fold changes in gene expression: SLC6A6 ([1]; RNA-seq validation, duplicates, gene SLC6A6): −0.35
Log2 fold changes in gene expression: SLC25A20 ([1]; RNA-seq validation, duplicates, gene SLC25A20): −0.31
Log2 fold changes in gene expression: SLC37A4 ([1]; RNA-seq validation, duplicates, gene SLC37A4): 0.09
Log2 fold changes in gene expression: SLC51B ([1]; RNA-seq validation, duplicates, gene SLC51B): −0.08
Log2 fold changes in gene expression: SULT2A1 ([1]; RNA-seq validation, duplicates, gene SULT2A1): −0.18
Log2 fold changes in gene expression: TAT ([1]; RNA-seq validation, duplicates, gene TAT): 0.09
Log2 fold changes in gene expression: TDO2 ([1]; RNA-seq validation, duplicates, gene TDO2): −0.14
Log2 fold changes in gene expression: TMEM135 ([1]; RNA-seq validation, duplicates, gene TMEM135): −0.16
Log2 fold changes in gene expression: TNFSF11 ([1]; RNA-seq validation, duplicates, gene TNFSF11): 0.04
Log2 fold changes in gene expression: VLDLR ([1]; RNA-seq validation, duplicates, gene VLDLR): 0.09
significant modulation of gene expression [1, 3]: significantly (p-value≤0.05) modulate
Number (#) of genes having significantly changed expression [1]: 9
Log2 fold changes in gene expression: CYP2C19 [2]: 0.04
Log2 fold changes in gene expression: CYP3A4 [2]: −0.08

CC(C)N(CCC(C(N)=O)(c1ccccc1)c1ccccn1)C(C)C (stereo not drawn) [MT-189, Disopyramide]
significant modulation of gene expression [1, 3]: significantly (p-value≤0.05) modulate
Number (#) of genes having significantly changed expression [1]: 7
Log2 fold changes in gene expression: CYP2C19 [2]: 0.18
Log2 fold changes in gene expression: CYP3A4 [2]: 0.03

Cc1ccc(C(=O)Cn2c3c(sc2=N)CCCC3)cc1 [Pifithrin alpha, Pifithrin-α]
biological activity of CD34+ cells (cell viability) (CI-CB-CD34+ cells): little or no effect
response of TF1 cells (biological activity, cell viability) (TF1 cells): did not significantly respond

C#C[C@]1(O)CC[C@H]2[C@@H]3CCC4=Cc5oncc5C[C@]4(C)[C@H]3CC[C@@]21C [MT-487, Danazol]
significant modulation of gene expression [1, 3]: significantly (p-value≤0.05) modulate
Number (#) of genes having significantly changed expression [1]: 5
Log2 fold changes in gene expression: CYP2C19 [2]: −0.03
Log2 fold changes in gene expression: CYP3A4 [2]: 0.11

C[C@H](CS)C(=O)N1CCC[C@H]1C(=O)O [MT-835, Captopril]
significant modulation of gene expression [1, 3]: significantly (p-value≤0.05) modulate
Number (#) of genes having significantly changed expression [1]: 12
Log2 fold changes in gene expression: CYP2C19 [2]: 0.07
Log2 fold changes in gene expression: CYP3A4 [2]: 0.02

CCc1oc2ccccc2c1C(=O)c1cc(Br)c(O)c(Br)c1 [MT-220, Benzbromarone]
significant modulation of gene expression [1, 3]: significantly (p-value≤0.05) modulate
Number (#) of genes having significantly changed expression [1]: 119
Log2 fold changes in gene expression: CYP2C19 [2]: 0.57
Log2 fold changes in gene expression: CYP3A4 [2]: 0.87
cytotoxicity in hepatocytes [2]: cytotoxic

CN(C)CCC=C1c2ccccc2COc2ccccc21 [MT-723, Adapin (doxepin)]
Log2 fold changes in gene expression: ACADVL [1]: 0
Log2 fold changes in gene expression: ACAT2 [1]: −0.03
Log2 fold changes in gene expression: ACSL1 [1]: 0.04
Log2 fold changes in gene expression: ACSL5 [1]: 0.03
Log2 fold changes in gene expression: AGPAT2 [1]: −0.05
Log2 fold changes in gene expression: AGTR1 [1]: 0.03
Log2 fold changes in gene expression: AHSG [1]: −0.07
Log2 fold changes in gene expression: ALAS1 [1]: −0.01
Log2 fold changes in gene expression: AMACR [1]: −0.11
Log2 fold changes in gene expression: ARG1 [1]: 0.07
Log2 fold changes in gene expression: CA2 [1]: −0.08
Log2 fold changes in gene expression: CA12 [1]: 0.29
Log2 fold changes in gene expression: CIDEC [1]: 0.09
Log2 fold changes in gene expression: COL1A1 [1]: −0.14
Log2 fold changes in gene expression: CPS1 [1]: −0.04
Log2 fold changes in gene expression: CPT1A [1]: 0.06
Log2 fold changes in gene expression: CPT2 [1]: −0.09
Log2 fold changes in gene expression: CYP21A2 [1]: 0.08
Log2 fold changes in gene expression: ECH1 [1]: −0.04
Log2 fold changes in gene expression: ENO3 [1]: −0.21
Log2 fold changes in gene expression: ETFDH [1]: 0.05
Log2 fold changes in gene expression: FABP1 [1]: −0.08
Log2 fold changes in gene expression: G6PC [1]: 0.03
Log2 fold changes in gene expression: GHR [1]: −0.05
Log2 fold changes in gene expression: GLA [1]: 0.01
Log2 fold changes in gene expression: HGD [1]: 0
Log2 fold changes in gene expression: HMGCR [1]: 0.02
Log2 fold changes in gene expression: HMGCS2 [1]: −0.04
Log2 fold changes in gene expression: HMOX1 [1]: 0.22
Log2 fold changes in gene expression: HOGA1 [1]: 0.03
Log2 fold changes in gene expression: HPGD [1]: 0.05
Log2 fold changes in gene expression: IFT27 [1]: 0
Log2 fold changes in gene expression: LDHA [1]: −0.09
Log2 fold changes in gene expression: LPIN2 [1]: 0.03
Log2 fold changes in gene expression: MOGAT2 [1]: 0.01
Log2 fold changes in gene expression: NCF2 [1]: −0.21
Log2 fold changes in gene expression: PCSK9 [1]: 0.11
Log2 fold changes in gene expression: POR [1]: 0.1
Log2 fold changes in gene expression: RMRP [1]: −0.14
Log2 fold changes in gene expression: SLC2A2 [1]: −0.04
Log2 fold changes in gene expression: SLC6A6 [1]: 0.17
Log2 fold changes in gene expression: SLC25A20 [1]: −0.1
Log2 fold changes in gene expression: SLC37A4 [1]: −0.17
Log2 fold changes in gene expression: SLC51B [1]: −0.26
Log2 fold changes in gene expression: SULT2A1 [1]: 0.03
Log2 fold changes in gene expression: TAT [1]: −0.1
Log2 fold changes in gene expression: TDO2 [1]: −0.14
Log2 fold changes in gene expression: TMEM135 [1]: 0.05
Log2 fold changes in gene expression: TNFSF11 [1]: −0.11
Log2 fold changes in gene expression: VLDLR [1]: 0.01
significant modulation of gene expression [1]: significantly (p-value≤0.05) modulate
Log2 fold changes in gene expression: CYP2C19 [2]: 0.18
Log2 fold changes in gene expression: CYP3A4 [2]: 0.14

COc1ccc(C2=N[C@@H](c3ccc(Cl)cc3)[C@@H](c3ccc(Cl)cc3)N2C(=O)N2CCNC(=O)C2)c(OC(C)C)c1 (racemic) [Nutlin 3]
biological activity of CD34+ cells (cell viability) (CI-CB-CD34+ cells): reduced biological activity
response of TF1 cells (biological activity, cell viability) (TF1 cells): did not significantly respond
